Test results taken from patent publication US20260297542A1, “HERBICIDE RESISTANT PLANTS” (SYNGENTA CROP PROTECTION AG, priority 2023, published 2026).
Numbering of substitutions follows the chain as printed.

What was measured:
Test in all cases: E. coli hemG growth inhibition by herbicide, AtPPO1 variant
Assay type in all cases: cell-based
Conditions in all cases: read-out: percentage growth inhibition
[1] = molecular target: T1, AtPPO1 Y361D (Arabidopsis thaliana, UniProt P55826, Y361D)
T1 construct: expressed in transfected cells; host or cells: E. coli BL21(DE3) hemG (pET24a, T7 promoter)
T1 sequence (P55826 35-537 Y361D): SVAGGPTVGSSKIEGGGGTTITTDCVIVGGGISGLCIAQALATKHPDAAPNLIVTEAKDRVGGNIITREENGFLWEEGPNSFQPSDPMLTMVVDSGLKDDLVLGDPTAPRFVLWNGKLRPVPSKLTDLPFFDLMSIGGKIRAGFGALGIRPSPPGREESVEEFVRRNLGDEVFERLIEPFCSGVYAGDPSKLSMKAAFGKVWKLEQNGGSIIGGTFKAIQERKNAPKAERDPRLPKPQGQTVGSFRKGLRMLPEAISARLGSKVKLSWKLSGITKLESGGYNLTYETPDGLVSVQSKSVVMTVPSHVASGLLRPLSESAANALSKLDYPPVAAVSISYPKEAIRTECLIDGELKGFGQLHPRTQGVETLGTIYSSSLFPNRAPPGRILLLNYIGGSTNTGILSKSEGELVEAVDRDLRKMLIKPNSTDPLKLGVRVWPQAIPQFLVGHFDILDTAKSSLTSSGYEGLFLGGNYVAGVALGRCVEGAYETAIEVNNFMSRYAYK
Summary of the method: (§1)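 AtPPO1 variants from a site-saturation library, codon-optimised and T7-driven in pET24a, were expressed in E. coli BL21(DE3) lacking hemG (hemG replaced by CmR). Growth in Terrific broth with 0.1 mM IPTG plus 6.25 ppm herbicide 0 or E, 0.78 ppm herbicide B, or DMSO was read as OD600 after 24 h at 37° C; inhibition was calculated against the DMSO culture.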

[2] = molecular target: T2, AtPPO1 P271C (Arabidopsis thaliana, UniProt P55826, P271C)
T2 construct: expressed in transfected cells; host or cells: E. coli BL21(DE3) hemG (hemG replaced by CmR), pET24a plasmid
T2 sequence (P55826 35-537 P271C): T1 sequence (P55826 35-537 Y361D) with P237C, D327Y
Summary of the method: as §1

[3] = molecular target: T3, AtPPO1 K281N (Arabidopsis thaliana, UniProt P55826, K281N)
T3 construct: expressed in transfected cells; host or cells: E. coli BL21(DE3) hemG (hemG replaced by CmR), pET24a plasmid
T3 sequence (P55826 35-537 K281N): T1 sequence (P55826 35-537 Y361D) with K247N, D327Y
Summary of the method: as §1

[4] = molecular target: T4, AtPPO1 Q272H (Arabidopsis thaliana, UniProt P55826, Q272H)
T4 construct: expressed in transfected cells; host or cells: E. coli BL21(DE3) hemG (hemG replaced by CmR), pET24a plasmid
T4 sequence (P55826 35-537 Q272H): T1 sequence (P55826 35-537 Y361D) with Q238H, D327Y
Summary of the method: as §1

| SMILES | inhibition at 6.25 ppm [1] [%] | inhibition at 6.25 ppm [2] [%] | inhibition at 6.25 ppm [3] [%] | inhibition at 6.25 ppm [4] [%] | inhibition at 0.78 ppm [1] [%] | inhibition at 0.78 ppm [2] [%] | inhibition at 0.78 ppm [3] [%] | inhibition at 0.78 ppm [4] [%] |
| --- | --- | --- | --- | --- | --- | --- | --- | --- |
| CCOC(=O)[C@]1(C)CC(c2cc(-n3c(=O)n(C)c(=S)n(C)c3=O)c(F)cc2Cl)=NO1 [Herbicide D, ethyl (5S)-3-[2-chloro-5-(3,5-dimethyl-2,6-dioxo-4-thioxo-1,3,5-triazinan-1-yl)-4-fluoro-phenyl]-5-methyl-4H-isoxazole-5-carboxylate] | 33 | 24 | 37 | 28 |  |  |  |  |
| C#CCN1C(=O)C(F)(F)Oc2cc(F)c(-n3c(=O)n(C)c(=S)n(C)c3=O)cc21 [Herbicide B, trifludimoxazin] |  |  |  |  | 20 | 24 | 39 | 27 |
| CC(C)N(C)S(=O)(=O)NC(=O)c1cc(-n2c(=O)cc(C(F)(F)F)n(C)c2=O)c(F)cc1Cl [Herbicide E, saflufenacil] | 14 | 66 | 56 | 64 |  |  |  |  |
